Test: osmotic coefficient (dimensionless); mn = molality of the nth substance listed, in mol/kg
Conditions: 318.15 K, 101 kPa, Liquid

CCCCn1cc[n+](C)c1.F[P-](F)(F)(F)(F)F [1-butyl-3-methylimidazolium hexafluorophosphate] + CC#N
osmometer
Conditions | osmotic coefficient
m1 = 0.0116 | 0.76
m1 = 0.019 | 0.636
m1 = 0.0321 | 0.477
m1 = 0.0366 | 0.436
m1 = 0.0544 | 0.323
m1 = 0.0691 | 0.278
m1 = 0.0918 | 0.287
m1 = 0.1015 | 0.314
m1 = 0.1285 | 0.415
m1 = 0.1496 | 0.515
m1 = 0.1789 | 0.692
m1 = 0.2032 | 0.857

CCCCn1cc[n+](C)c1.F[B-](F)(F)F [1-butyl-3-methylimidazolium tetrafluoroborate] + O
vapor pressure osmometry
Conditions | osmotic coefficient
m1 = 0.0101 | 1.01
m1 = 0.0355 | 0.992
m1 = 0.044 | 0.927
m1 = 0.0701 | 0.887
m1 = 0.0971 | 0.864
m1 = 0.152 | 0.808
m1 = 0.1977 | 0.793
m1 = 0.2891 | 0.739
m1 = 0.3968 | 0.672
m1 = 0.4678 | 0.657
m1 = 0.5632 | 0.611
m1 = 0.799 | 0.532
m1 = 1.023 | 0.473
m1 = 1.468 | 0.372
m1 = 2.417 | 0.257

CCCCn1cc[n+](C)c1.[Br-] [1-butyl-3-methylimidazolium bromide] + O
vapor pressure osmometry
Conditions | osmotic coefficient
m1 = 0.022 | 0.944
m1 = 0.0461 | 0.926
m1 = 0.0726 | 0.894
m1 = 0.1241 | 0.855
m1 = 0.2702 | 0.809
m1 = 0.3522 | 0.785
m1 = 0.3994 | 0.777
m1 = 0.5204 | 0.755
m1 = 0.7354 | 0.726
m1 = 0.9713 | 0.713
m1 = 1.272 | 0.701
m1 = 2.024 | 0.69

CCCCn1cc[n+](C)c1.F[B-](F)(F)F [1-butyl-3-methylimidazolium tetrafluoroborate] + CC#N
osmometer
Conditions | osmotic coefficient
m1 = 0.0093 | 0.906
m1 = 0.0203 | 0.648
m1 = 0.0341 | 0.462
m1 = 0.0631 | 0.293
m1 = 0.0795 | 0.273
m1 = 0.1043 | 0.314
m1 = 0.1163 | 0.344
m1 = 0.1359 | 0.412
m1 = 0.1472 | 0.462
m1 = 0.1631 | 0.553
m1 = 0.1791 | 0.646
m1 = 0.2091 | 0.872

Source: the NIST ThermoML archive (doi:10.1016/j.fluid.2007.03.019)
